Source: patent EP4741386A1 (Jiangsu Yahong Meditech Co., Ltd., priority 2023, dated 2025)

Columns and labels:
[1] = target: T1, Recombinant human His6-USP1/His6-UAF1 complex protein (Homo sapiens, UniProt O94782); assay: In vitro inhibitory activity against USP1 (Ubiquitin Rhodamine 110 fluorescence detection, 384-well plate); format: biochemical; conditions: Ub-Rho substrate, 1 hour pre-incubation, read after 30 minutes
T1 construct: His6; purchased R&D E-568-050
Summary of the method: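 Fluorescence assay measuring inhibition of recombinant human His6-USP1/His6-UAF1 complex with Ubiquitin-Rhodamine 110 substrate. Compounds held as 50 mM stocks in 100% DMSO and dispensed by acoustic transfer into modified Tris assay buffer.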

MDA-MB-436 = assay: CTG experiment for cell viability (CellTiter-Glo, 96-well plate, 7 days); format: cell-based; conditions: Homo sapiens, MDA-MB-436, 168 h, MDA-MB-436 cells, 7 days culture with compound
Method: Test Example 2: CTG experiment for cell viability
• 1. Object: to screen USP1 inhibitors by a CTG assay, using a 96-well plate. • 2. Materials: • The cells used were MDA-MB-436 (manufacturer: Nanjing Cobioer Biotechnology Co., Ltd.) and cultured in DMEM medium, • CTG (CellTiter-Glo® Luminescent Cell Viability Assay kit) (Promega, Cat. No.: G7572), • 96-well plate (Corning, Cat. No.: 3610). • 3. Compounds: all compounds were dissolved in 100% DMSO to obtain 50 mM stock solutions. • 4. Experimental method: • ① Plating: The cells to be tested were spread into a 96-well plate at a certain density, with 200 µL per well, and 200 µL of cell medium was added to the blank wells. […] The cell plate with the compounds was placed in an incubator at 37°C, and further cultured for 7 days prior to detection. • ④ Assay: The substrate and the buffer of CTG kit were mixed evenly. The cell plate with the compounds in Step ③ was taken out from the incubator, and left at room temperature to equilibrate for 30 minutes. The medium containing the compounds was removed from the cell plate, 100 µL of PBS and 50 µL of CTG reagent were added to each well, shaken and mixed for 3 minutes, and then incubated for 10 minutes at room temperature. The plate was read by a BIotek microplate-reader, with a parameter set to 567 CPM. • 5. Curve fitting
It was the same as that for the enzyme.

T1 sequence (O94782 whole entry): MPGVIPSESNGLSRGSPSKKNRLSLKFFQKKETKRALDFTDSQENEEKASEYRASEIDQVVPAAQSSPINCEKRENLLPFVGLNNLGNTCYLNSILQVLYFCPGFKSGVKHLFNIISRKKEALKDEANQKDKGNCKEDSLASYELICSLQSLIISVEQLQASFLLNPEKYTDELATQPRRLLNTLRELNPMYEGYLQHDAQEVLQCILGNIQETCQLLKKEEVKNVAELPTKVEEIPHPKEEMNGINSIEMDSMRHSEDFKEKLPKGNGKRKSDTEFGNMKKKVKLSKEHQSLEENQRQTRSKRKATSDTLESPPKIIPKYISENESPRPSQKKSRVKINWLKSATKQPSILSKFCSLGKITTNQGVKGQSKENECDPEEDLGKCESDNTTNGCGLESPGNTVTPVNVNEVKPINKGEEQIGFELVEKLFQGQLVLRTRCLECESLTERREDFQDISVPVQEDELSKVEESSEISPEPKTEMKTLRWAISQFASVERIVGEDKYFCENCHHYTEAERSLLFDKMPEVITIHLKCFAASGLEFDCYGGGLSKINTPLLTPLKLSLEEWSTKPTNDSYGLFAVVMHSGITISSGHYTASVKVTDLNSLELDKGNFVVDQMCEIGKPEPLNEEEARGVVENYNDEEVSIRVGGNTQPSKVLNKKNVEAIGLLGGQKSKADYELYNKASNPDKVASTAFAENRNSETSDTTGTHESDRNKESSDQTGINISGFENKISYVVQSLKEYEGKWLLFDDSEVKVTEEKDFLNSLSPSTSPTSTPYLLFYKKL
T1 sequence (Q8TAF3 whole entry partner): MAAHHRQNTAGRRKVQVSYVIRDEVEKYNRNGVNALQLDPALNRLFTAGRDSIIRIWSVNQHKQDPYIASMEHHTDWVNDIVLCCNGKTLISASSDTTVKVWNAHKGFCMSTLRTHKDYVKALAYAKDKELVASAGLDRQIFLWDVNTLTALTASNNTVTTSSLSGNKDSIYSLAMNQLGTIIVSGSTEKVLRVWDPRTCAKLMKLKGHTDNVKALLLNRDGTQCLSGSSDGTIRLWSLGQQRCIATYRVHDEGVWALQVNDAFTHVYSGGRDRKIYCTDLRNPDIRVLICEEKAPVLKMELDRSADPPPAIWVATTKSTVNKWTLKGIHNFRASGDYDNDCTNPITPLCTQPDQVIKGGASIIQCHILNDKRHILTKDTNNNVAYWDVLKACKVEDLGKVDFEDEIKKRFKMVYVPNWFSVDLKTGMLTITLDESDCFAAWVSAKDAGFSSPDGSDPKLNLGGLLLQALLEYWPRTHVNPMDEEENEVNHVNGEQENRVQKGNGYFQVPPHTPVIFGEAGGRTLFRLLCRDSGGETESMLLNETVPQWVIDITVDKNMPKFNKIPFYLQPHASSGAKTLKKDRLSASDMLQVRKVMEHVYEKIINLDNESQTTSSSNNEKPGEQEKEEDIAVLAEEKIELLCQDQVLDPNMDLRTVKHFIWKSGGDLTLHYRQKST

| Structure (SMILES) | IC50 [1] | IC50 (MDA-MB-436) |
| --- | --- | --- |
| COC(=O)Cc1cnc(-c2ccccc2C(C)C)nc1NCc1ccc(-c2nc(C(F)(F)F)cn2C)cc1 [Example 91, Methyl 2-(2-(2-isopropylphenyl)-4-((4-(1-methyl-4-(trifluoromethyl)-1H-imidazol-2-yl)benzyl)amino)pyrimidin-5-yl)acetate] | 1.3 nM | 479 nM |
| COc1cnc(-c2c(OC)ncnc2C2CC2)nc1NCC12CCC(c3nc(C(F)(F)F)cn3C)(CC1)OC2 [Example 210] | 85 nM | 169 nM |
| COc1ncnc(C2CC2)c1-c1ncc(CO)c(NCc2ccc(-c3nc(C(F)(F)F)cn3C(C)C)cc2)n1 [Example 137, (4'-Cyclopropyl-4-((4-(1-isopropyl-4-(trifluoromethyl)-1H-imidazol-2-yl)benzyl)amino)-6'-methoxy-[2,5'-bipyrimidin]-5-yl)methanol] | 24 nM | 216 nM |
| [2H]C([2H])([2H])Oc1ncnc(C2CC2)c1-c1ncc(OC)c(NCC23CCC(c4nc(C(F)(F)F)cn4C)(CC2)CC3)n1 [Example S5, 4'-Cyclopropyl-5-methoxy-6'-(methoxy-D3)-N-((4-(1-methyl-4-(trifluoromethyl)-1H-imidazol-2-yl)bicyclo[2.2.2]oct-1-yl)methyl)-[2,5'-bipyrimidin]-4-amine] | 14 nM | 20.2 nM |
| COc1cc(CNc2nc(-c3c(OC)ncnc3C3CC3)nc3ccoc23)ccc1-n1nc(C(F)(F)F)cc1C [Example 122, 2-(4-Cyclopropyl-6-methoxypyrimidin-5-yl)-N-(3-methoxy-4-(5-methyl-3-(trifluoromethyl)-1H-pyrazol-1-yl)benzyl)furo[3,2-d]pyrimidin-4-amine] | 13 nM | 82.8 nM |
| COc1ncnc(C2CC2)c1-c1ncc2c(n1)N(C[C@H]1CC[C@H](c3nc(C(F)(F)F)cn3C)CC1)CCO2 [Example 22, 2-(4-Cyclopropyl-6-methoxypyrimidin-5-yl)-8-(((1r,4r)-4-(1-methyl-4-(trifluoromethyl)-1H-imidazol-2-yl)cyclohexyl)methyl)-7,8-dihydro-6H-pyrimido[5,4-b][1,4]oxazine] | 24.4 nM | 209 nM |
| COc1cnc(-c2cncnc2C2CC2)nc1NCc1ccc(-c2nc(C(F)(F)F)cn2C)cc1 [Example 194, 4'-Cyclopropyl-5-methoxy-N-(4-(1-methyl-4-(trifluoromethyl)-1H-imidazol-2-yl)benzyl)-[2,5'-bipyrimidin]-4-amine] | 51 nM | 58.4 nM |
| COc1cnc(-c2c(OC)ncnc2C2CC2)nc1NCc1ccc(OCc2ccccn2)cc1 [Example 98, 4'-Cyclopropyl-5,6'-dimethoxy-N-(4-(pyridin-2-ylmethoxy)benzyl)-[2,5'-bipyrimidin]-4-amine] | 144 nM | 694 nM |
| COc1ncnc(C2CC2)c1-c1ncc(F)c(N(C)Cc2ccc(-c3nc(C(F)(F)F)cn3C(C)C)cc2)n1 [Example 127, 4'-Cyclopropyl-5-fluoro-N-(4-(1-isopropyl-4-(trifluoromethyl)-1H-imidazol-2-yl)benzyl)-6'-methoxy-N-methyl-[2,5'-bipyrimidin]-4-amine] | 4.2 nM | 12.2 nM |
| COc1cnc(-c2ccccc2C(C)C)nc1N(C)CC1CCC(c2ccccn2)CC1 (stereo not drawn) [Example 61, 2-(2-isopropylphenyl)-5-methoxy-N-methyl-N-((4-(pyridin-2-yl)cyclohexyl)methyl)pyrimidin-4-amine] | 11 nM | 813 nM |
| Cc1noc(C(C)C)c1-c1ncc(OC(F)F)c(NCc2ccc(-c3nc(C(F)(F)F)cn3C)cc2)n1 [Example 190, 5-(Difluoromethoxy)-2-(5-isopropyl-3-methylisoxazol-4-yl)-N-(4-(1-methyl-4-(trifluoromethyl)-1H-imidazol-2-yl)benzyl)pyrimidin-4-amine] | 33 nM | 339 nM |
| COc1cnc(-c2ccccc2C(C)C)nc1NC[C@H]1CC[C@H](c2nc(C(F)(F)F)cn2C)CC1 [Example 6, 2-(2-Isopropylphenyl)-5-methoxy-N-(((1R,4R)-4-(1-methyl-4-(trifluoromethyl)-1H-imidazol-2-yl)cyclohexyl)methyl)pyrimidin-4-amine] | 1.2 nM | 2 nM |
| CCOCCOc1ccc(CNc2nc(-c3ccccc3C(C)C)ncc2OC)cc1 [Example 68, N-(4-(2-Ethoxyethoxy)benzyl)-2-(2-isopropylphenyl)-5-methoxypyrimidin-4-amine] | 3.2 nM | 267 nM |
| [2H]C([2H])([2H])Oc1ncnc(C2CC2)c1-c1ncc(OC)c(N(C[C@H]2CC[C@H](c3nc(C(F)(F)F)cn3C)CC2)C([2H])([2H])[2H])n1 [Example S24, 4'-Cyclopropyl-5-methoxy-6'-(methoxy-D3)-N-(methyl-D3)-N(((1R,4R)-4-(1-methyl-4-(trifluoromethyl)-1H-imidazol-2-yl)cyclohexyl)methyl)-[2,5'-bipyrimidin]-4-amine] | 5.7 nM | 4.6 nM |
| COc1ncnc(C2CC2)c1-c1ncc(Cl)c(NCc2ccc(-c3nc(C(F)(F)F)cn3C)cc2)n1 [Example 124, 5-Chloro-4'-cyclopropyl-6'-methoxy-N-(4-(1-methyl-4-(trifluoromethyl)-1H-imidazol-2-yl)benzyl)-[2,5'-bipyrimidin]-4-amine] | 6.1 nM | 13.2 nM |
| COc1cc(CNc2nc(-c3ccccc3C3CC3)nc3ccoc23)ccc1-c1nc(C(F)(F)F)cn1C [Example 176, 2-(2-Cyclopropylphenyl)-N-(3-methoxy-4-(1-methyl-4-(trifluoromethyl)-1H-imidazol-2-yl)benzyl)furo[3,2-d]pyrimidin-4-amine] | 4 nM | 187 nM |
| COc1cnc(-c2c(OC)ncnc2C2CC2)nc1NCC1CCN(c2nc(C(F)(F)F)cn2C)CC1 [Example 95, 4'-Cyclopropyl-5,6'-dimethoxy-N-((1-(1-methyl-4-(trifluoromethyl)-1H-imidazol-2-yl)piperidin-4-yl)methyl)-[2,5'-bipyrimidin]-4-amine] | 8.4 nM | 75.1 nM |
| Cn1cc(C(F)(F)F)nc1-c1ccc(CNc2nc(-c3ccccc3C3CC3)nc3ccoc23)cc1 [Example 173, 2-(2-Cyclopropylphenyl)-N-(4-(1-methyl-4-(trifluoromethyl)-1H-imidazol-2-yl)benzyl)furo[3,2-d]pyrimidin-4-amine] | 1 nM | 23.6 nM |
| [2H]C([2H])([2H])N(C[C@H]1CC[C@H](c2nc(C(F)(F)F)cn2C2CC2)CC1)c1nc(-c2c(OC)ncnc2C2CC2)ncc1OC [Example S23, 4'-Cyclopropyl-N-(((1R,4R)-4-(1-cyclopropyl-4-(trifluoromethyl)-1H-imidazol-2-yl)cyclohexyl)methyl)-5,6'-dimethoxy-N-(methyl-D3)-[2,5'-bipyrimidin]-4-amine] | 4.8 nM | 0.1 nM |
| [2H]C([2H])([2H])N(CC12CCC(c3nc(C(F)(F)F)cn3C)(CC1)CC2)c1nc(-c2c(OC)ncnc2C2CC2)ncc1OC [Example S4, 4'-Cyclopropyl-5,6'-dimethoxy-N-(methyl-d3)-N-((4-(1-methyl-4-(trifluoromethyl)-1H-imidazol-2-yl)bicyclo[2.2.2]oct-1-yl)methyl)-[2,5'-bipyrimidin]-4-amine] | 4.9 nM | 2.3 nM |
| COc1cc(-c2nc(C(F)(F)F)cn2C)ccc1CNc1nc(-c2c(OC)ncnc2C2CC2)nc2ccoc12 [Example 119, 2-(4-Cyclopropyl-6-methoxypyrimidin-5-yl)-N-(2-methoxy-4-(1-methyl-4-(trifluoromethyl)-1H-imidazol-2-yl)benzyl)furo[3,2-d]pyrimidin-4-amine] | 7.6 nM | 16.9 nM |
| COc1cc(-n2nc(C(F)(F)F)cc2C)ccc1CNc1nc(-c2c(OC)ncnc2C2CC2)nc2ccoc12 [Example 121, 2-(4-Cyclopropyl-6-methoxypyrimidin-5-yl)-N-(2-methoxy-4-(5-methyl-3-(trifluoromethyl)-1H-pyrazol-1-yl)benzyl)furo[3,2-d]pyrimidin-4-amine] | 8.3 nM | 23.9 nM |
| COc1cc(-n2nc(C(F)(F)F)cc2C)ccc1CNc1nc(-c2ccccc2C(C)C)nc2ccoc12 [Example 83, 2-(2-Isopropylphenyl)-N-(2-methoxy-4-(5-methyl-3-(trifluoromethyl)-1H-pyrazol-1-yl)benzyl)furo[3,2-d]pyrimidin-4-amine] | 4.4 nM | 99.1 nM |
| COc1cnc(-c2c(OC)ncnc2C2CC2)nc1N(C)CC12C3C4C1C1C2C3C41c1nc(C(F)(F)F)cn1C (stereo not drawn) [Example 207, 2-(4-cyclopropyl-6-methoxy-pyrimidin-5-yl)-5-methoxy-N-methyl-N-[[4-[1-methyl-4-(trifluoromethyl)imidazol-2-yl]cuban-1-yl]methyl]pyrimidin-4-amine] | 3.5 nM | 5.8 nM |
